{"source": "patent EP0266006A2", "about": "“Novel hypotensive diuretic peptides” (SHIONOGI SEIYAKU KABUSHIKI KAISHA trading under the name of …, priority 1986, dated 1988)", "origin": "cited, not measured here", "conditions": "said to be so, unlike α type or γ type", "note": "Where no end group is shown, it is not given here."}
{"substance": "β-hANP: antiparallel dimer of α-hANP (SLRRSSCFGGRMDRIGAQSGLGCNSFRY; ends and bridges not checked; also: antiparallel dimer of α-hANP; UniProt P01160 124-151, looked up)", "values": [{"measurement": "diuretic action (duration)", "value": "persistent"}]}
